From US8859628B2, “Method for preventing, treating and diagnosing disorders of protein aggregation” (priority 2003, dated 2014)
“Also recorded” adds a separate entry of the source.

Experiments:
[1] = system: TgCRND8 mice; experiment: Plasma Aβ levels; assay type: in vivo, mouse
Description: (§1) Plasma and Cerebral Aβ Content—Hemi-brain samples were homogenized in a buffered sucrose solution, followed by either 0.4% diethylamine/100 mM NaCl for soluble Aβ levels or cold formic acid for the isolation of total Aβ. After neutralization the samples were diluted and analyzed for Aβ40 and Aβ42 using commercially available kits (BIOSOURCE International). Each hemisphere was analyzed in triplicate with the mean±SEM reported. Western blot analyses were performed on all fractions using urea gels for Aβ species analyses. Aβ was detected using 6E10 (BIOSOURCE International) and Enhanced Chemiluminenscence (Amersham).
(§2) Plasma and Cerebral Aβ Content—Hemi-brain samples were homogenized in a buffered sucrose solution, followed by either 0.4% diethylamine/100 mM NaCl for soluble Aβ levels or cold formic acid for the isolation of total Aβ. After neutralization the samples were diluted and analyzed for Aβ40 and Aβ42 using commercially available kits (BIOSOURCE International). Each hemisphere was analyzed in triplicate with the mean±SEM reported.

[2] = system: TgCRND8 mice; settings: mouse, in vivo
Description: Animals were sacrificed after one month of treatment and analysed for pathological outcomes.
(§3) In these experiments, the dosage and oral administration of compounds, and the behavioral and neurochemical assays were the same as those employed in the above treatment experiments.

[3] = system: TgCRND8 mice; experiment: Cerebral Aβ content (Aβ40 and Aβ42 kits on hemi-brain homogenates); assay type: in vivo, mouse; design: Total Aβ: unit not given here
Description: as §1, §2

[4] = system: TgCRND8 mice; experiment: Morris Water Maze, spatial reference memory version, three-day trial paradigm (treatment/reversal study); assay type: in vivo, mouse; settings: for cognitive function, treated TgCRND8 mice vs non-Tg littermates (words): 1 month treatment from 5 months of age, three-day paradigm
Description: A cohort entered the study at 5 months of age and outcomes were analyzed at 6-months of age. The body weight, coat characteristics and in cage behavior was monitored. All experiments were performed according to the Canadian Council on Animal Care guidelines.
(§4) Behavioral Test—Reversal Study—Mice entered the Morris water maze test with a hidden platform on day one without pretraining. Mice were tested for 3 days with six trials per day. On the fourth day, the platform was removed from the pool and each mouse received one 30-s swim probe trial. On the last day the animals underwent a cue test in order to evaluate swimming ability, eye sight and general cognition. The cue test is composed at the platform being placed in a different quadrant than that used for testing and is tagged with a flag. Animals are allowed 60 s to find the platform. […] Behavioural data was analysed using a mixed model of factorial analysis of variance (ANOVA) with drug or genotype and training sessions as repeated measure factors.
The cognitive function of TgCRND8 mice was assessed using the spatial reference memory version of the Morris Water Maze using a three day trial paradigm (FIGS. 4-8).
Behavioural data was analysed using a mixed model of factorial analysis of variance (ANOVA) with drug and genotype as between subject variables and training sessions as within subject variable.
as §3

[5] = system: non-Tg littermates; experiment: Morris Water Maze performance of treated non-Tg littermates; assay type: in vivo, mouse; settings: treated vs untreated non-Tg
Description: (§5) Behavioral tests—After non-spatial pre-training, mice underwent place discrimination training for 5 days with 4 trials per day. Behavioral data was analyzed using a mixed model of factorial analysis of variance (ANOVA) with drug or genotype and training sessions as repeated measure factors.
as §4

[6] = system: TgCRND8 mice; experiment: Cerebral amyloid plaque burden (anti-Aβ immunostaining, image analysis); assay type: in vivo, mouse; settings: for amyloid/plaque burden vs untreated (words) / mean plaque size: prevention
Description: (§6) Cerebral amyloid burden—Brains were removed and one hemisphere was fixed in 4% paraformaldehyde and embedded in paraffin wax in the mid saggital plane. To generate sets of systematic uniform random sections, 5 μm serial sections were collected across the entire hemisphere. Sets of sections at […] intervals were used for analyses (10-14 sections/set). Plaque were identified after antigen retrieval with formic acid, and incubated with primary anti-Aβ antibody (Dako M-0872), followed by secondary antibody (Dako StreptABCcomplex/horseradish kit). End products were visualized with DAB counter-stained with hematoxylin. Amyloid plaque burden was assessed using Leco IA-3001 image analysis software interfaced with Leica microscope and Hitachi KP-M1U CCD video camera. Vascular burden was analyzed similarly and a dissector was used to measure the diameter of affected vessels.
as §6, with “camera.” for “camera. Vascular burden was analyzed similarly and a dissector was used to measure the diameter of affected vessels.”

[7] = system: TgCRND8 mice; experiment: Morris Water Maze, spatial reference memory version, five-day trial paradigm (prevention study); assay type: in vivo, mouse; settings: 6 months of age
Description: Age and sex-matched cohorts of TgCRND8 mice and non-transgenic littermates (n=35 in each cohort) were either untreated, or were given a compound of the present invention as indicated below at 30 mg/day/mouse beginning at age of about 6 weeks. The mice were followed for outcome measures cognitive function, brain Aβ levels, brain pathology, and survival at 4 months and 6 months of age.
Two cohorts entered the study at 6 weeks of age and outcomes were analyzed at 4- and 6-months of age. The body weight, coat characteristics and in cage behavior was monitored. All experiments were performed according to the Canadian Council on Animal Care guidelines.
as §5
The cognitive function of TgCRND8 mice was assessed using the spatial reference memory version of the Morris Water Maze using a five-day trial paradigm (FIGS. 1C-1H). […] The improved performance was also not due to nutritional or caloric effects because body weight, activity, and coat condition were not different between treated and untreated cohorts. […] Gender effects were not significant between any treatment group (p=0.85).

[8] = system: TgCRND8 mice; experiment: Gliosis quantitation (GFAP astrocytes, CD68 microglia); assay type: in vivo, mouse; settings: prevention
Description: Gliosis Quantitation—Five randomly selected, evenly spaced, sagittal sections were collected from paraformaldehyde-fixed and frozen hemispheres of treated and control mice. Sections were immunolabelled for astrocytes with anti-rat GFAP IgG2a (Dako; diluted 1:50) and for microglia with anti-rat CD68 IgG2b (Dako; 1:50).
Serial sagittal sections were stained with the astrocytic marker glial fibrillary acidic protein (GFAP) and quantitated for percent brain area covered by astrogliosis.

[9] = system: TgCRND8 mice; experiment: Vascular amyloid burden; assay type: in vivo, mouse; settings: prevention, 6 months of age
Description: as §6
Alzheimer's disease is characterized by the presence of both parenchymal and vascular amyloid deposits. In untreated 6 month old TgCRND8 mice approximately 0.03% of the brain area is associated with vascular amyloid.

[10] = molecular target: T1, Aβ42 (Homo sapiens, UniProt P05067); settings: cited from earlier work
T1 construct: The importance of residues 1-42 (Aβ42) in Alzheimer's disease was highlighted

[11] = system: amyloid-beta peptide; settings: cited from earlier work
[12] = system: TgCRND8 mice; experiment: Survival census (Kaplan-Meier); assay type: in vivo, mouse; settings: vs untreated TgCRND8
Description: Survival Census—The probability of survival was assessed by the Kaplan-Meier technique, computing the probability of survival at every occurrence of death, thus making it suitable for small sample sizes. For the analyses of survival, 35 mice were used for each treatment group. The comparison between treatments was reported using the Tarone-Ware test.

[13] = 28 days treatment from 5 months of age
[14] = 1 month treatment from 5 months of age
[15] = 1 month treatment, 30 mg/mouse/day from 5 months, analyzed at 6 months of age
[16] = 4 month prevention, 30 mg/mouse/day from 6 weeks of age
[17] = 6 month prevention, 30 mg/mouse/day from 6 weeks of age

T1 sequence (P05067 672-713 limits assumed): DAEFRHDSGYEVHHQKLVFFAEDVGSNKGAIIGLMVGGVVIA

## OC1C(O)C(O)C(O)C(O)C1O (stereo not drawn) [Allo-inositol, allo-inositol]
[1]; 1 month treatment from 5 months of age, listed as allo-inositol
  effect on plasma Aβ levels in comparison to untreated (words): indistinguishable from untreated TgCRND8 plasma levels
[1]; allo-inositol study: 1 month treatment (28 days) from 5 months of age
  Plasma Aβ Levels: 2458 ± 95 pg/mL
[2]
  effects on blood chemistry or organ function: do not exhibit obvious deleterious effects on blood chemistry or organ function
[2]; po
  ALP: 95 ± 16 U/L
  ALT: 44 ± 4 U/L
  Albumin: 32 ± 2 g/L
  Bilirubin: 2.9 ± 3 µmol/L
  Creatinine: 69 ± 64 µmol/L
  Globulin: 17 ± 3 g/L
  Glucose: 10 ± 3 mmol/L
  Icteria: Normal
  Lipemia: Normal
  Total protein: 48 ± 2 g/L
  Urea: 18.6 ± 13 mmol/L
[3]; [13]
  effect on insoluble Aβ42 or Aβ40 (soluble and insoluble pools): did not significantly alter
  reduction of soluble Aβ42: 20%
[3]; allo-inositol study: 1 month treatment (28 days) from 5 months of age, mean ± sem
  Brain Aβ42 Insoluble: 16336 ± 910 ng/gm wet brain
[4]; listed as allo-inositol
  cognitive function, treated TgCRND8 mice vs non-Tg littermates (words): still significantly different from that of their non-transgenic littermates
[4]; [13]
  cognitive function, treated vs untreated TgCRND8 mice (words): performed significantly better than untreated TgCRND8 mice

## OC1C(O)C(O)C(O)C(O)C1O (stereo not drawn) [Epi-Inositol, epi-inositol]
[5]
  effect on performance of non-Tg mice: had no effect on the performance of non-Tg mice; also recorded: not effected
[6]; [14]
  plaque burden vs untreated: not a significant decrease in the mean plaque size
[6]; [15]
  Plaque Area: 459706 ± 49966 μm^2
  Plaque Count: 1342 ± 114
  Total Plaque Area/Total Brain Area: 0.134 ± 0.017%
[6]; [16]
  Plaque Area: 65042 ± 5199 μm^2
  Plaque Count: 678 ± 64
  Total Plaque Area/Total Brain Area: 0.020 ± 0.001%
[6]; [17]
  Plaque Area: 380456 ± 13498 μm^2
  Plaque Count: 979 ± 32
  Total Plaque Area/Total Brain Area: 0.096 ± 0.04%
[6]; 6 months of age
  amyloid/plaque burden vs untreated (words): modest effect on amyloid burden
  mean plaque size: 370±9 μm^2
[6]; 4 months of age
  mean plaque size: 95±4.3 μm^2
[1]; 1 month treatment
  Plasma Aβ Levels: 2158 ± 157 pg/mL
[1]; 1 month treatment from 5 months of age, listed as epi-inositol
  effect on plasma Aβ levels in comparison to untreated (words): Neither myo-inositol, epi-inositol nor scyllo-inositol treatment had any effect on plasma Aβ levels
[1]; 4 month prevention
  Plasma Aβ Levels: 1082 ± 164 pg/mL
[1]; 6 month prevention
  Plasma Aβ Levels: 952 ± 56 pg/mL
[1]; prevention, 4- and 6-months of age
  effect on plasma Aβ levels in comparison to untreated (words): Neither epi-inositol nor scyllo-inositol treatment had any effect on plasma Aβ levels
[7]
  cognitive function, treated vs untreated TgCRND8 mice (words): performed significantly better than untreated TgCRND8 mice
[8]; 6 months of age
  astrogliosis/gliosis vs untreated: decrease in astrogliosis
[8]; 6-months of age
  astrogliosis, percent brain area covered (GFAP): 0.388±0.039%
[8]; 6 months
  microglial activation, % brain area: 0.248±0.02%
[9]
  vascular amyloid burden vs untreated (words): No difference could be detected in the vascular amyloid burden
[3]; [14]
  Aβ load vs untreated: Aβ load was significantly decreased
[3]; [15]
  Total Aβ: 17271 ± 415
[3]; [16]
  Total Aβ: 4802 ± 176
[3]; [17]
  Total Aβ: 18464 ± 229
[3]; prevention, 6 months of age
  brain Aβ levels compared with untreated: rose to levels similar to those observed in untreated TgCRND8 mice
[4]; listed as epi-inositol
  cognitive function, treated TgCRND8 mice vs non-Tg littermates (words): almost significantly different

## OC1C(O)C(O)C(O)C(O)C1O (stereo not drawn) [chiro-inositol]
[10]
  structural transition from random to β-structure in Aβ42: epi- and scyllo- but not chiro-inositol were able to induce a structural transition

## O=P(O)(O)O[C@@H]1[C@H](O)[C@H](O)[C@@H](OP(=O)(O)O)[C@H](OP(=O)(O)O)[C@H]1O [inositol-1,4,5-triphosphate]
[11]
  ability to inhibit amyloid-beta peptide fibrillogenesis: found not to be effective

## O=P(O)(O)O[C@H]1[C@H](O)[C@@H](O)[C@H](OP(=O)(O)O)[C@@H](O)[C@H]1O [inositol-1,4-bisphosphate]
[11]
  ability to inhibit amyloid-beta peptide fibrillogenesis: found not to be effective

## O=P(O)(O)O[C@@H]1[C@@H](O)[C@H](O)[C@@H](O)[C@H](O)[C@@H]1O [inositol-monophosphate]
[11]
  ability to inhibit amyloid-beta peptide fibrillogenesis: found not to be effective

## OC[C@@H](O)[C@@H](O)[C@H](O)[C@H](O)CO [mannitol, reference compound]
[5]
  effect on performance of non-Tg mice: had no effect on the behaviour of non-Tg mice
[6]; 6 months of age
  amyloid/plaque burden vs untreated (words): did not alter the plaque load in TgCRND8 mice
[6]; 6 months of age, listed as Mannitol
  amyloid/plaque burden vs untreated (words): indistinguishable from untreated TgCRND8 mice when plaque count was used as a measure of total plaque burden
[7]
  cognitive function, treated TgCRND8 mice vs non-Tg littermates (words): significantly different from mannitol treated non-Tg littermates
  cognitive function, treated vs untreated TgCRND8 mice (words): had no effect on behavior; also recorded: indistinguishable from untreated TgCRND8 mice
[7]; listed as Mannitol
  cognitive function, treated vs untreated TgCRND8 mice (words): not significantly different from untreated TgCRND8 mice
[12]
  effect on survival of TgCRND8 mice: had no effect on the survival of TgCRND8 mice; also recorded: not significantly different
